Series [1] is described as follows: DRUGMATRIX: Calcium Channel Type L, Benzothiazepine radioligand binding (ligand: [3H] Diltiazem). In kind it is cell membranes, Rattus norvegicus, Wistar, Brain, Membrane. The following applies: Not Active = under 50% inhibition at 10 µM.
Series [2] has as its target T1, Alpha-2C adrenergic receptor (Homo sapiens, UniProt P18825).
T1 sequence (P18825 whole entry): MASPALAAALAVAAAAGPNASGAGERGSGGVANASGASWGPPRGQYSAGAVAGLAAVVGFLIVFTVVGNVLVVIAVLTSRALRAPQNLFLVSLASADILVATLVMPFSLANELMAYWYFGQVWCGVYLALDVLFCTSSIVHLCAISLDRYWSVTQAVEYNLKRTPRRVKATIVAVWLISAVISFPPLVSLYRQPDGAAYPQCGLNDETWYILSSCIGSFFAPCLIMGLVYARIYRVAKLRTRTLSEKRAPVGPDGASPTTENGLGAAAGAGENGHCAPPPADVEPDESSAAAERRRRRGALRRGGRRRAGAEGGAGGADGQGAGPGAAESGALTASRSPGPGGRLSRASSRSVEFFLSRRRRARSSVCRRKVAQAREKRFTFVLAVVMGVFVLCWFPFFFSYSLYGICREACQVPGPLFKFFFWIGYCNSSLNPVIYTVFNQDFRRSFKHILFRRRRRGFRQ
Put plainly: DRUGMATRIX: Adrenergic Alpha-2C radioligand binding (ligand: [3H] MK-912). In kind it is cell membranes, Sf9, Membrane.

Series [3] deals with T2, Polyunsaturated fatty acid lipoxygenase ALOX15 (Oryctolagus cuniculus, UniProt P12530).
T2 sequence (P12530 whole entry): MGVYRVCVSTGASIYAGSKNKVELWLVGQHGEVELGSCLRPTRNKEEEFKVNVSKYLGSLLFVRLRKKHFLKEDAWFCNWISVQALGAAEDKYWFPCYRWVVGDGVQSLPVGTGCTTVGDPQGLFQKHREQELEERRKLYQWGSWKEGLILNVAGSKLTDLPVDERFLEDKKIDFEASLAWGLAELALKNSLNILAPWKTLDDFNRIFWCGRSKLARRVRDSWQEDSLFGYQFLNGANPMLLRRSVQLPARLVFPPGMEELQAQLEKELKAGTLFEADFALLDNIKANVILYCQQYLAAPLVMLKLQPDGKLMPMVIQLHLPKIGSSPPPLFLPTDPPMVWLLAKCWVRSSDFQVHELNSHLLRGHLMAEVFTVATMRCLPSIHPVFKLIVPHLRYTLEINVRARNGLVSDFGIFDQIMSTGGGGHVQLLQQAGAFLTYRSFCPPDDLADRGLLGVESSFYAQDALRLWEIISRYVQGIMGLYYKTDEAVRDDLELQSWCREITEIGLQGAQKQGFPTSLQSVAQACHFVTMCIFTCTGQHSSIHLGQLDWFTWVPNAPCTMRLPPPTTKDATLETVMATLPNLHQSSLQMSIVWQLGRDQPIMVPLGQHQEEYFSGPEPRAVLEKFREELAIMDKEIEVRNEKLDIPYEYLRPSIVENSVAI
Put plainly: biochemical. The series is classed as tissue-based, Reticulocytes. The conditions noted are these: reticulocytes.

The next series deals with T3, Cytochrome P450 2A6 (Homo sapiens, UniProt P11509).
T3 sequence (P11509 whole entry): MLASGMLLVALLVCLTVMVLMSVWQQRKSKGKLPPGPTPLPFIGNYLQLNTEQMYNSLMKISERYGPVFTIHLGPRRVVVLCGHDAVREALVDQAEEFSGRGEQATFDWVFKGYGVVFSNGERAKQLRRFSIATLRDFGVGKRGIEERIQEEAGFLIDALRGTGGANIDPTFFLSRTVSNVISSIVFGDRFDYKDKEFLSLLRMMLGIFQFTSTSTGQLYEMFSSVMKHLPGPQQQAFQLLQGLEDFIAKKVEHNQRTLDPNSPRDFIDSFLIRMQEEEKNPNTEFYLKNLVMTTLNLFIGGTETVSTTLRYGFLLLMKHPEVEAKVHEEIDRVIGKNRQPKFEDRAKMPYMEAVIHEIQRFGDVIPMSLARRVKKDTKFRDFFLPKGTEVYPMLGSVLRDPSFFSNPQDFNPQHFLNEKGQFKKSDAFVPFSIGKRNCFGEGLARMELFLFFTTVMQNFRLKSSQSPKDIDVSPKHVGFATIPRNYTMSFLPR
The following applies: bti-tn-5b1-4.

Series [4] in a line: DRUGMATRIX: Glutamate, Kainate radioligand binding (ligand: [3H] Kainic acid). In kind it is cell membranes, Rattus norvegicus, Wistar, Brain, Membrane. The following applies: Not Active = under 50% inhibition at 10 µM.
Series [5] is described as follows: DRUGMATRIX: Serotonin (5-Hydroxytryptamine) 5-HT3 radioligand binding (ligand: [3H] GR-65630). In kind it is cell membranes, Membrane. The following applies: hek293; Not Active = under 50% inhibition at 10 µM.

Usually IC50 stands for the midpoint of a concentration-inhibition curve. What is called Ki is the equilibrium dissociation constant of an inhibitor or competing ligand from its target.

Consider `CN(C)CCC=C1c2ccccc2CCc2ccccc21` [AMITRIPTYLINE], for which the IC50 in series [1] (read-out: IC50) is 1990 nM; in series [2] (read-out: IC50), 59 nM; in series [3] it was “Not Active”; against Cytochrome P450 2A6, “Not Active”; in series [4], “Not Active”; in series [5], “Not Active”. The Ki is 1770 nM in series [1] (read-out: Ki); 8.6 nM in series [2] (read-out: Ki); “Not Active” on Cytochrome P450 2A6; “Not Active” in series [4]; “Not Active” in series [5].
`CC(=O)Oc1ccccc1C(=O)O` [ASPIRIN]: the IC50 entry (in series [1]; in series [2] (sf9); in series [3]; against Cytochrome P450 2A6; in series [4]; in series [5]) was “Not Active” in each case. Also, the Ki result (in series [1]; at Cytochrome P450 2A6; in series [4]; in series [5]) was “Not Active” throughout.
In the case of `CC(C)c1c(C(=O)Nc2ccccc2)c(-c2ccccc2)c(-c2ccc(F)cc2)n1CC[C@@H](O)C[C@@H](O)CC(=O)O` [ATORVASTATIN], the half-inhibitory concentration (IC50) entry (in series [1]; in series [2] (sf9); in series [3]; on Cytochrome P450 2A6; in series [4]; in series [5]) was “Not Active” each time. Moreover, the Ki entry (in series [1]; at Cytochrome P450 2A6; in series [4]; in series [5]) was “Not Active” each time.
Consider `CC(=O)OC[C@H]1O[C@@H](n2ncc(=O)[nH]c2=O)[C@H](OC(C)=O)[C@@H]1OC(C)=O` [AZARIBINE], for which the half-inhibitory concentration (IC50) result (in series [1]; in series [2] (sf9); in series [3]; on Cytochrome P450 2A6; in series [4]; in series [5]) was “Not Active” throughout. For the same molecule, the Ki entry (in series [1]; at Cytochrome P450 2A6; in series [4]; in series [5]) was “Not Active” throughout.
As for `C[C@H]1[C@H](NC(=O)/C(=N\OC(C)(C)C(=O)O)c2csc(N)n2)C(=O)N1S(=O)(=O)O` [AZTREONAM], the IC50 result (in series [1]; in series [2] (sf9); in series [3]; on Cytochrome P450 2A6; in series [4]; in series [5]) was “Not Active” in each case. Moreover, the Ki entry (in series [1]; at Cytochrome P450 2A6; in series [4]; in series [5]) was “Not Active” throughout.
In the case of `O=C(O)CCNC(=O)c1ccc(/N=N/c2ccc(O)c(C(=O)O)c2)cc1` [BALSALAZIDE], the IC50 result (in series [1]; in series [2] (sf9); in series [3]; at Cytochrome P450 2A6; in series [4]; in series [5]) was “Not Active” each time. In addition, the Ki entry (in series [1]; on Cytochrome P450 2A6; in series [4]; in series [5]) was “Not Active” throughout.
Turning to `COc1cc(OC)c(C(=O)CCCN2CCCC2)c(OC)c1` [BUFLOMEDIL], the IC50 result (in series [1]; in series [2] (sf9); in series [3]; against Cytochrome P450 2A6; in series [4]; in series [5]) was “Not Active” throughout. Also, the Ki result (in series [1]; at Cytochrome P450 2A6; in series [4]; in series [5]) was “Not Active” in each case.
Take `Cn1c(=O)c2c(ncn2C)n(C)c1=O` [CAFFEINE]: the IC50 result (in series [1]; in series [2] (sf9); in series [3]; against Cytochrome P450 2A6; in series [4]; in series [5]) was “Not Active” each time. For the same molecule, the Ki entry (in series [1]; on Cytochrome P450 2A6; in series [4]; in series [5]) was “Not Active” throughout.
With `ClC(Cl)(Cl)Cl` [CARBON TETRACHLORIDE], the IC50 entry (in series [1]; in series [2] (sf9); in series [3]; against Cytochrome P450 2A6; in series [4]; in series [5]) was “Not Active” each time. Moreover, the Ki entry (in series [1]; on Cytochrome P450 2A6; in series [4]; in series [5]) was “Not Active” each time.
For `CO/N=C(\C(=O)N[C@@H]1C(=O)N2C(C(=O)O)=C(COC(C)=O)CS[C@H]12)c1csc(N)n1` [CEFOTAXIME], the IC50 result (in series [1]; in series [2] (sf9); in series [3]; against Cytochrome P450 2A6; in series [4]; in series [5]) was “Not Active” throughout. Besides, the Ki entry (in series [1]; at Cytochrome P450 2A6; in series [4]; in series [5]) was “Not Active” each time.
As for `CNC1=Nc2ccc(Cl)cc2C(c2ccccc2)=[N+]([O-])C1` [CHLORDIAZEPOXIDE], the IC50 entry (in series [1]; in series [2] (sf9); in series [3]; against Cytochrome P450 2A6; in series [4]; in series [5]) was “Not Active” each time. Moreover, the inhibitory constant (Ki) result (in series [1]; at Cytochrome P450 2A6; in series [4]; in series [5]) was “Not Active” throughout.
Turning to `Cc1cc(O)cc(C)c1Cl` [CHLOROXYLENOL], the IC50 entry (in series [1]; in series [2] (sf9); in series [3]; at Cytochrome P450 2A6; in series [4]; in series [5]) was “Not Active” each time. The Ki entry (in series [1]; on Cytochrome P450 2A6; in series [4]; in series [5]) was “Not Active” in each case.
Take `CCCNC(=O)NS(=O)(=O)c1ccc(Cl)cc1` [CHLORPROPAMIDE]: the IC50 result (in series [1]; in series [2] (sf9); in series [3]; on Cytochrome P450 2A6; in series [4]; in series [5]) was “Not Active” throughout. Also, the Ki result (in series [1]; at Cytochrome P450 2A6; in series [4]; in series [5]) was “Not Active” each time.
As for `NS(=O)(=O)c1cc(C2(O)NC(=O)c3ccccc32)ccc1Cl` (stereo unspecified) [CHLORTHALIDONE], the half-maximal inhibitory concentration (IC50) entry (in series [1]; in series [2] (sf9); in series [3]; on Cytochrome P450 2A6; in series [4]; in series [5]) was “Not Active” each time. Also, the Ki result (in series [1]; on Cytochrome P450 2A6; in series [4]; in series [5]) was “Not Active” in each case.
Turning to `O=C(O)CC(O)(CC(=O)O)C(=O)O` [CITRIC ACID], the IC50 result (in series [1]; in series [2] (sf9); in series [3]; on Cytochrome P450 2A6; in series [4]; in series [5]) was “Not Active” throughout. Moreover, the Ki entry (in series [1]; at Cytochrome P450 2A6; in series [4]; in series [5]) was “Not Active” throughout.

The values above are taken from ChEMBL document CHEMBL1909046, “DrugMatrix in vitro pharmacology data”.
